Test results taken from patent US12076310B2, “Compounds and methods for the treatment of acute myelogenous leukemia” (University of Rochester, priority 2021, dated 2024).
Entries after “also recorded” stand apart in the source; their conditions may differ.

Key:
leukemia cell lines = assay: Screening of hits and structural analogs for effects on proliferation of leukemia cell lines; format: cell-based, human; conditions: dose range tested; data not shown
[1] = tested on: MOLM13, MV411, THP1 and U937 cells; assay: Cell cycle analysis by flow cytometry; format: cell-based, human; conditions: range of concentrations, 24 hours
Protocol: Cell cycle analysis: For cell cycle analysis, Leukemia cell lines were washed with 1× phosphate buffered saline (PBS Mediatech, Inc., Manassas, VA, USA) and centrifuged at 1200 rpm for 8 minutes. Cell pellet was re-suspended in 100 microliters of Cytofix/Cytoperm™ (BD Biosciences, Cat No. 554722) buffer for at room temperature (RT) for 15 minutes. Cell suspension washed with 1×PBS and centrifuged at 1200 rpm for 8 minutes and re-suspended in 1 ml of culture media containing 1 μl of Vybrant® DyeCycler™ Violet Stain (ThermoFisher Scientific, Cat No. V35003). Cell suspensions were incubated at 37° C. in a 5% CO2 incubator for least 30 minutes. Cell suspensions were analyzed using a LSRII™ flow cytometer (BD Biosciences, San Jose, CA, USA). A minimum of 8,000 cells were included in the analysis of each sample. Data were analyzed by FlowJo software (Tree Star, Ashland, OR, USA) and collected on linear scale for forward and side scatter (i.e., FSC and SSC, respectively) and on a linear scale for violet fluorescence channel […].

[2] = tested on: MOLM13, MV411, THP1 and U937 cells; assay: Proliferation of cell lines by counting cells in a hemocytometer; format: cell-based, human; conditions: range of concentrations, 72 hours
Protocol: Effect of UR778Br on proliferation of cell lines: Proliferation of MOLM13, MV411, THP1 and U937 cells was measured by counting cells in a hemocytometer. Briefly, cells were seeded at 20,000 to 40,000 cells/well in triplicate wells of a 96 well plate and treated with a range of UR778Br doses and incubated at 37° C. with 5% CO2 in a humidified incubator. Cell counts were determined at 24-, 48- and 72 hours.

primary human AML cells = assay: Viability of primary AML cells (annexin-V/DAPI flow cytometry); format: cell-based; conditions: dose range, 48 hours
Protocol: Effect of UR778Br on apoptosis in primary AML cells: Primary AML cells were treated with DMSO or varying concentrations of UR778Br and cytarabine 5 μM and cultured in a 37° C., 5% CO2 incubator for 24 and 48 hours. The cells were stained for 15 min in annexin-V binding buffer (10 mM HEPES/NaOH, pH 7.4, 140 mM NaCl, 2.5 mM CaCl2)) containing annexin-V-APC antibody (BD Biosciences) and DAPI (Sigma). Stained cells were analyzed immediately on using a LSRII™ flow cytometer (BD Biosciences, San Jose, CA, USA).
Effect of UR778Br on viability of primary human AML cells: Vials of primary AML cells cryopreserved in liquid nitrogen were thawed rapidly in a 37° C. water bath. The contents, generally one ml, were transferred to a 15 ml conical tube, one tenth the volume of DNase was added (bovine pancreas deoxyribonuclease, Sigma Aldrich D4263-5VL), it was mixed gently and incubated in a 37° C. water bath for 90 seconds. 9 ml of DMEM with 2% FBS was added dropwise and mixed gently. Samples were then centrifuged for 5 to 6 minutes, aspirated and the supernatant discarded. […] The cells were counted in a hemocytometer with viability estimated by Trypan blue dye exclusion.
Primary cells were cultured in 37° C., 5% CO2 incubator. […] Stained cells were analyzed immediately on BD FACS Celesta, flow cytometer (BD Biosciences). Viable cells were scored as annexin-V and DAPI double negative cells.

[3] = tested on: MOLM13, MV411, THP1 and U937; assay: Viability of cell lines by the MTS assay; format: cell-based, human; conditions: range of concentrations, 48 hours
Protocol: Effect of UR778Br on viability of cell lines: Viability of MOLM13, MV411, THIP1 and U937 was determined by the MTS assay. Briefly, 20,000 to 40,000 cells/well were seeded in triplicate wells of a 96 well plate and treated with a range of UR778Br doses and incubated for 48 to 72 hours at 37° C. with 5% CO2 in a humidified incubator. Cell Titre96R Aqueous One Solution Cell Proliferation Assay reagent (Promega Corp., catalog number: G3580) diluted 1-10 in complete RPMI medium was added and cells were incubated for 4 hours. The optical density (OD) values were read at 490 nm wavelength using BioRad iMark microplate reader. Experiments were performed in triplicates; data are expressed as the mean of the triplicate determinations (X±SD) of a representative experiment in % of absorbance by samples with untreated cells [=100%].

[4] = tested on: MOLM13, MV411, THP1 and U937 cells; assay: Apoptosis by Western blot of cleaved PARP; format: cell-based, human; conditions: 25 μM, 24 hours
Protocol: For measurement of apoptosis by Western blot the MOLM13, MV41, THP1 and U937 cells treated with UR778Br for 24 hours were lysed and expression of cleaved PARP, an indicator of apoptosis, was measured as described above.

primary AML cells = assay: Clonogenicity of primary AML cells in MethoCult; format: cell-based, human
Protocol: Effect of UR778Br on clonogenicity of primary AML cells: Vials of primary AML cells cryopreserved in liquid nitrogen were thawed rapidly in a 37° C. water bath. The contents, generally one ml, were transferred to a 15 ml conical tube, one tenth the volume of DNase was added (bovine pancreas deoxyribonuclease, Sigma Aldrich D4263-5VL), it was mixed gently and incubated in a 37° C. water bath for 90 seconds. 9 ml of DMEM with 2% FBS was added dropwise and mixed gently. Samples were then centrifuged for 5 to 6 minutes, aspirated and the supernatant discarded. 70 μl of DNase were added and mixed gently. 10 ml of DMEM with 2% FBS was added slowly to resuspend and then the sample was centrifuged for 5 to 6 minutes. Supernatant was discarded, 50 μl of DNase was added, sample was mixed gently and the pellet was resuspended in 5 ml of IMDM+10% FBS, L-glutamine 2 mM (GIBCO) and penicillin and streptomycin (50 units and 50 mcg/ml). The cells were counted in a hemocytometer with viability estimated by Trypan blue dye exclusion.
The cell suspension was then added to MethoCult Enriched H4435 (Stem Cell Technologies, catalog number 04435) to achieve a final concentration between 5×10^4 to 2×10^5/ml. DMSO, UR778Br or cytarabine were added to achieve indicated concentrations. […] The plates were incubated 37° C., 5% CO2 incubator and colonies were counted at 7, 14 and 21 days. […]

[5] = tested on: MOLM13, MV411, THP1 and U937; assay: Colony formation of leukemia cell lines in MethoCult; format: cell-based, human; conditions: 6.25 μM
Protocol: Effect of UR778Br on colony formation cell lines: MOLM13, MV411, THP1 and U937 were added to MethoCult H4435 Enriched (Stem Cell Technologies, catalog number 04435) to achieve concentration of 2000 cells/ml, 500 cells/ml and 200 cells/ml. UR778br was added to achieve a range of concentrations. Each condition was done in triplicate. The plates were incubated at 37° C. with 5% CO2 in a humidified incubator Colonies were counted at 7, 14 and 21 days.

normal bone marrow cells = assay: Colony formation by normal bone marrow in MethoCult; format: cell-based, human
Protocol: Effect of UR778Br on colony formation by normal bone marrow: Vials of cryopreserved aliquots were thawed the in a 37° C. water bath. Nine ml of RPMI with 2% FBS were added dropwise to the cells in 1 ml of freezing media, centrifuged at 1000 rpm for 5 min and re-suspended in 5 ml of RPMI. The cells were counted in a hemocytometer and viability estimated by Trypan blue dye exclusion. The cells were added to MethoCult H4435 Enriched (Stem Cell Technologies, catalog number 04435) to achieve concentrations of 5×10^4 to 1×10^5 viable cells/ml. UR778Br was added at indicated concentrations. The mixture was vortexed and allowed to settle. Each condition was dispersed in triplicate or quadruplicate. The plates were incubated at 37° C. with 5% CO2 in a humidified incubator and colonies were counted at 7, 14 and 21 days. Images of colony forming unit assays were acquired using the Celligo imaging cytometer (Nexcelom Biosciences) at a resolution of 1 pixel/μm. Celligo instrument software was used for image processing.

IQGAP1 = IQGAP1 expression in MOLM13 cells (immunoblot); format: cell-based, human; conditions: 25 μM, 24 hours

In the case of `CCCCN1C(=O)C(O)(CC(=O)c2ccccc2O)c2cc(Br)ccc21` (stereo not shown) [UR778Br], the “inhibition of proliferation of leukemia cells (anti-proliferative activity)” value (leukemia cell lines) is reported as “most potent structural analog of AK778”, the cell cycle arrest [1] is reported as “cell cycle arrest in the G2M phase in a dose-dependent manner; also recorded: dose-dependent arrest in G2/M phase of the cell cycle” and the proliferation [2] is reported as “dose dependent reduction of proliferation”. For the same molecule, the “viability (annexin-V and DAPI double negative cells)” value (primary human AML cells) was “dose dependent decrease in viability”, the viability [3] was “decreased viability in AML cell lines in a dose-dependent fashion; also recorded: dose-dependent decrease in viability” and the “apoptosis (expression of cleaved PARP)” value [4] was “apoptosis in MOLM13 cells”. The “apoptosis (expression of cleaved PARP)” value ([4]; listed as UR778B2) was “apoptosis in the four cell lines”, the “colony formation by three primary AML cells” value (primary AML cells; concentrations as low as 6.25 μM) was “blocks colony formation” and the “colony formation units of primary AML cells” value (primary AML cells; varying concentrations) was “inhibition of the colony formation units”. For the same molecule, the colony formation units [5] was “suppress clonogenic progenitors; also recorded: inhibition of the colony formation units”, the “colony formation by normal bone marrow” value (normal bone marrow cells; 6.25 μM) was “did not inhibit colony formation by normal bone marrow; also recorded: majority of normal bone marrow samples do not exhibit reduced colony formation” and the “colony formation by normal primary bone marrow cells” value (normal bone marrow cells; 12.5 μM compared with 6.25 μM) was “inhibition of the colony formation units to a greater degree than at 6.25 μM concentration”. For the same molecule, the “expression of IQGAP1” value (IQGAP1) was “decreased expression of IQGAP1”.
